Measured values from patent US20260263550A1, “METHODS AND COMPOSITIONS FOR TREATING, PREVENTING, INHIBITING, AMELIORATING OR DELAYING THE ONSET OF OPHTHALMIC CONDITIONS” (Stealth BioTherapeutics Inc., priority 2021, published 2026).

Test: in vivo
Conditions: cynomolgus monkey, sc; for concentration at 29 study day: Average Conc.
Experimental: Male and female cynomolgus monkeys were divided into four groups (Groups 1 to 4). Groups 1 and 4 consisted of five males and five females each and Groups 2 and 3 consisted of three males and three females each. Animals were dosed via SC injection once daily for 28 consecutive days. Group 1 animals received the control article, 0.9% sodium chloride injection, USP (saline). Group 2, 3, and 4 animals received the test article, compound of Formula IIa, at dose levels of 2, 5, and 15 mg/kg/day, respectively. Three males and three females from Groups 1 to 3, and three males and one female from Group 4 were necropsied on Day 29 (terminal necropsy). Two males and two females from Groups 1 and 4 were necropsied on Day 42 (recovery necropsy), after a 13-day treatment-free period. […] Safety endpoints included daily clinical and weekly detailed observations, food evaluation, dermal scoring of the injection site, body weight, ophthalmology, electrocardiography (ECG), hematology, coagulation, serum chemistry, and urinalysis. Blood was collected at multiple time points. At termination, gross observations and organ weights were recorded, and eye/optic nerve tissue samples were collected for microscopic evaluation and biodistribution assays.
Preparation of dose formulations. Dose formulation preparations were performed once weekly in a biosafety cabinet using clean techniques. The test article dosing formulations were prepared by diluting the 100 mg/mL (nominal concentration) compound of Formula IIa stock solution in the appropriate volume of 0.9% Sodium Chloride Injection, USP. All formulations (including Group 1, control) were filtered using a 0.22 μm polyethersulfone (PES) syringe filter. Osmolarity and pH were measured and recorded, then the dosing formulations were aliquoted into a sufficient number of sterile glass vials for daily use over one week. All aliquots were stored in a refrigerator set to maintain 4° C. and used within 7 days after preparation.
Test system. The test system was cynomolgus monkey, originating from Cambodia, supplied by Worldwide Primates. The animals were identified by unique skin tattoos. The body weight of the animals ranged from 1.6. to 2.4 kg at initiation of dosing and the ages ranged from 2.0 to 3.1 years at the initiation of dosing. For acclimation, there were 18 males and 18 females. For dosing, 16 males and 16 females were used.
Administration of dose formulations. The dose formulations were administered to appropriate animals by subcutaneous injection into the interscapular area once daily for 28 days using disposable syringe and needle. Four subcutaneous dose sites (upper left/right and lower left/right) were designated on the dorsal back using permanent marker or tattoo placed during acclimation avoiding the spine, with no edges overlapping and with a maximum practical distance between the dose sites. The designated dosing sites were shaved, and injection was rotated among them. If a designated site was not suitable for administration (e.g., due to wound, scab/crust, etc.), the next suitable site was used for dosing and appropriately documented.
Necropsy. Animals were fasted overnight prior to termination. Following blood collection on the day of necropsy, animals were sedated, weighed, and euthanized by an overdose of euthanasia solution, followed by whole body perfusion flush with phosphate buffered saline. Animals were subjected to a complete macroscopic examination and tissue collection. Bone marrow smears were prepared from the sternum at scheduled necropsy. Two females were necropsied early on Days 25 and 27. Blood samples (hematology, coagulation, and serum chemistry) were collected prior to euthanasia, after which a complete macroscopic examination was performed.
Tissue collection and preservation. Left eyes and optic nerves were fixed in a solution of 2.5% NBF and 3% Glutaraldehyde, and right eyes and optic nerves were frozen for biodistribution.
Biodistribution analysis—right eye and optic nerve. […]

[1] = male, 15 mg/kg/day, Average Concentration, Aqueous Humor
[2] = male, 15 mg/kg/day, Average Concentration, Choroid
[3] = male, 15 mg/kg/day, Average Concentration, Conjunctiva
[4] = male, 15 mg/kg/day, Average Concentration, Cornea
[5] = male, 15 mg/kg/day, Average Concentration, ICB (iris/ciliary body)
[6] = male, 15 mg/kg/day, Average Concentration, Optic Nerve
[7] = male, 15 mg/kg/day, Average Concentration, Retina
[8] = male, 15 mg/kg/day, Average Concentration, Sclera
[9] = male, 15 mg/kg/day, Average Concentration, Vitreous Humor

With `Cc1cc(O)cc(C)c1C[C@H](NC(=O)[C@H](N)CCCNC(=N)N)C(=O)N[C@@H](CCCCN)c1nc(Cc2ccccc2)no1.Cl.Cl.Cl` [Formula IIa, (R)-2-amino-N—((S)-1-(((S)-5-amino-1-(3-benzyl-1,2,4-oxadiazol-5-yl)pentyl)amino)-3-(4-hydroxy-2,6-dimethylphenyl)-1-oxopropan-2-yl)-5-guanidinopentanamide] the “Average Concentration” value (2 mg/kg) was “<LLOQ”, the Conc. (2 mg/kg) was “<LLOQ” and the Concentration (2 mg/kg) was “<LLOQ”. For the same compound, the “Average Concentration” value (5 mg/kg) was “<LLOQ”, the Conc. (5 mg/kg) was “<LLOQ” and the Concentration (5 mg/kg) was “<LLOQ”. The “Average Concentration” value (15 mg/kg) was “<LLOQ”, the Conc. (15 mg/kg) was “<LLOQ” and the Concentration (15 mg/kg) was “<LLOQ”. For the same compound, the concentration at 29 study day (female, 2 mg/kg) was 17500 ng/g, the concentration at 29 day (female, 2 mg/kg/day, Average Concentration, Aqueous Humor) was 2.76 ng/mL and the concentration at 29 day (female, 2 mg/kg/day, Average Concentration, Choroid) was 2500 ng/g. The concentration at 29 day (female, 2 mg/kg/day, Average Concentration, Conjunctiva) was 835 ng/g, the concentration at 29 day (female, 2 mg/kg/day, Average Concentration, Cornea) was 27.2 ng/g and the concentration at 29 day (female, 2 mg/kg/day, Average Concentration, ICB (iris/ciliary body)) was 375 ng/g. For the same compound, the concentration at 29 day (female, 2 mg/kg/day, Average Concentration, Optic Nerve) was 17500 ng/g, the concentration at 29 day (female, 2 mg/kg/day, Average Concentration, Retina) was 7390 ng/g and the concentration at 29 day (female, 2 mg/kg/day, Average Concentration, Sclera) was 446 ng/g. The concentration at 29 day (female, 2 mg/kg/day, Average Concentration, Vitreous Humor) was 13.1 ng/mL, the concentration at 29 day (female, 2 mg/kg/day, Concentration (ng/g), Cornea (individual animals)) was 53.4 ng/g and the concentration at 29 day (female, 2 mg/kg/day, Concentration (ng/mL), Cornea (individual animals)) was 2.67 ng/mL. It also gave a concentration at 29 study day (female, 5 mg/kg) of 31800 ng/g, a concentration at 29 day (female, 5 mg/kg/day, Average Concentration, Aqueous Humor) of 25.9 ng/mL and a concentration at 29 day (female, 5 mg/kg/day, Average Concentration, Choroid) of 3210 ng/g. It also gave a concentration at 29 day (female, 5 mg/kg/day, Average Concentration, Conjunctiva) of 1770 ng/g, a concentration at 29 day (female, 5 mg/kg/day, Average Concentration, Cornea) of 56.1 ng/g and a concentration at 29 day (female, 5 mg/kg/day, Average Concentration, ICB (iris/ciliary body)) of 800 ng/g. The concentration at 29 day (female, 5 mg/kg/day, Average Concentration, Optic Nerve) was 31800 ng/g, the concentration at 29 day (female, 5 mg/kg/day, Average Concentration, Retina) was 20100 ng/g and the concentration at 29 day (female, 5 mg/kg/day, Average Concentration, Sclera) was 837 ng/g. The concentration at 29 day (female, 5 mg/kg/day, Average Concentration, Vitreous Humor) was 23.3 ng/mL, the concentration at 42 day (female, 15 mg/kg/day, Average Concentration, Aqueous Humor) was 9.83 ng/mL and the concentration at 42 day (female, 15 mg/kg/day, Average Concentration, Choroid) was 27600 ng/g. It also gave a concentration at 42 day (female, 15 mg/kg/day, Average Concentration, Conjunctiva) of 4540 ng/g, a concentration at 42 day (female, 15 mg/kg/day, Average Concentration, Cornea) of 149 ng/g and a concentration at 42 day (female, 15 mg/kg/day, Average Concentration, ICB (iris/ciliary body)) of 3160 ng/g. The concentration at 42 day (female, 15 mg/kg/day, Average Concentration, Optic Nerve) was 40800 ng/g, the concentration at 42 day (female, 15 mg/kg/day, Average Concentration, Retina) was 67000 ng/g and the concentration at 42 day (female, 15 mg/kg/day, Average Concentration, Sclera) was 4700 ng/g. The concentration at 42 day (female, 15 mg/kg/day, Average Concentration, Vitreous Humor) was 62.7 ng/mL, the concentration at 42 day (female, 15 mg/kg/day, Concentration (ng/g), Sclera (individual animals)) was 5140 ng/g and the concentration at 29 study day (male, 2 mg/kg) was 22000 ng/g. The “Concentration, Aqueous Humor (individual animals)” value (male, 2 mg/kg/day, 29 day) was 2.94 ng/mL, the concentration at 29 day (male, 2 mg/kg/day, Average Concentration, Aqueous Humor) was 2.31 ng/mL and the concentration at 29 day (male, 2 mg/kg/day, Average Concentration, Choroid) was 1890 ng/g. For the same compound, the concentration at 29 day (male, 2 mg/kg/day, Average Concentration, Conjunctiva) was 603 ng/g, the concentration at 29 day (male, 2 mg/kg/day, Average Concentration, Cornea) was 39.3 ng/g and the concentration at 29 day (male, 2 mg/kg/day, Average Concentration, ICB (iris/ciliary body)) was 354 ng/g. The concentration at 29 day (male, 2 mg/kg/day, Average Concentration, Optic Nerve) was 22000 ng/g, the concentration at 29 day (male, 2 mg/kg/day, Average Concentration, Retina) was 2770 ng/g and the concentration at 29 day (male, 2 mg/kg/day, Average Concentration, Sclera) was 701 ng/g. It also gave a concentration at 29 day (male, 2 mg/kg/day, Average Concentration, Vitreous Humor) of 11.2 ng/mL, a concentration at 29 day (male, 2 mg/kg/day, Concentration, Aqueous Humor (individual animals)) of 4 ng/mL and a concentration at 29 study day (male, 5 mg/kg) of 26300 ng/g. The concentration at 29 day (male, 5 mg/kg/day, Average Concentration, Aqueous Humor) was 5.29 ng/mL, the concentration at 29 day (male, 5 mg/kg/day, Average Concentration, Choroid) was 4060 ng/g and the concentration at 29 day (male, 5 mg/kg/day, Average Concentration, Conjunctiva) was 3560 ng/g. For the same compound, the concentration at 29 day (male, 5 mg/kg/day, Average Concentration, Cornea) was 64 ng/g, the concentration at 29 day (male, 5 mg/kg/day, Average Concentration, ICB (iris/ciliary body)) was 1230 ng/g and the concentration at 29 day (male, 5 mg/kg/day, Average Concentration, Optic Nerve) was 26300 ng/g. The concentration at 29 day (male, 5 mg/kg/day, Average Concentration, Retina) was 5760 ng/g, the concentration at 29 day (male, 5 mg/kg/day, Average Concentration, Sclera) was 1820 ng/g and the concentration at 29 day (male, 5 mg/kg/day, Average Concentration, Vitreous Humor) was 13.3 ng/mL. For the same compound, the concentration at 29 day [1] was 14.5 ng/mL, the concentration at 42 day [1] was 3.82 ng/mL and the concentration at 29 day [2] was 8790 ng/g. The concentration at 42 day [2] was 7880 ng/g, the concentration at 29 day [3] was 5430 ng/g and the concentration at 42 day [3] was 4380 ng/g. It also gave a concentration at 29 day [4] of 195 ng/g, a concentration at 42 day [4] of 34.8 ng/g and a concentration at 29 day [5] of 3910 ng/g. It also gave a concentration at 42 day [5] of 1410 ng/g, a concentration at 29 day [6] of 60000 ng/g and a concentration at 42 day [6] of 91500 ng/g. For the same compound, the concentration at 29 day [7] was 26100 ng/g, the concentration at 42 day [7] was 30200 ng/g and the concentration at 29 day [8] was 2260 ng/g. For the same compound, the concentration at 42 day [8] was 3870 ng/g, the concentration at 29 day [9] was 48.8 ng/mL and the concentration at 42 day [9] was 45.3 ng/mL. The concentration at 42 day (male, 15 mg/kg/day, Concentration (ng/g), Cornea (individual animals)) was 34.6 ng/g and the concentration at 42 day (male, 15 mg/kg/day, Concentration (ng/mL), Cornea (individual animals)) was 1.73 ng/mL.
